Calls of active or inactive are those of the source. The calls are words filed in the database; no cut-off is given here.

In general, IC50 refers to the concentration that gives 50% inhibition.

Data set [1] in a line: Half life in human liver microsomes by LC-MS/MS analysis. The class given is ADME, Microsome.
In a further data set the test system is NCI/ADR-RES. Description: Antiproliferative activity against human NCI-ADR-RES cells after 72 hrs by celltiter-glo luminescent assay. The class given is functional, cell-based. A general note: ATP-based viability assays read luminescence as a measure of living cells.
The target of data set [2] is T1, Farnesyl pyrophosphate synthase (Homo sapiens, UniProt P14324).
T1 sequence (P14324 whole entry): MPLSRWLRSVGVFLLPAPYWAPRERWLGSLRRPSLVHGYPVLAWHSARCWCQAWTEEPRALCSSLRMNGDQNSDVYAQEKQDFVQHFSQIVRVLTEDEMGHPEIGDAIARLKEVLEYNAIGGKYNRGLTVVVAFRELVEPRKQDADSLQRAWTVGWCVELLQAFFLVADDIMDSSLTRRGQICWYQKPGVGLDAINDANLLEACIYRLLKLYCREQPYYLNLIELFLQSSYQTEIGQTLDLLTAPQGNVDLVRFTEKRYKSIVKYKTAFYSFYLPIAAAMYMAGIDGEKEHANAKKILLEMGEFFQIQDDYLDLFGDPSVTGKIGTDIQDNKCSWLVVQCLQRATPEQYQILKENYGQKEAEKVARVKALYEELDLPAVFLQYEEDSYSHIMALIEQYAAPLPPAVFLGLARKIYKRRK
Briefly: Inhibition of human FPPS using [14C]-IPP and […] after 10 mins by scintillation counting.

Data set [3] concerns RPMI-8226. Description: Induction of apoptosis in human RPMI8226 cells assessed as necrotic cells at 1 uM after 72 hrs in presence GGOH by APC Annexin V/eFluor-780-viability double staining-based FACS analysis (reference value: 3.60%). Format: functional. A general note: In flow cytometry, cells or beads pass a laser one at a time.
Data set [4] deals with RPMI-8226. Briefly: Induction of apoptosis in human RPMI8226 cells assessed as late apoptotic cells at 1 uM after 72 hrs by APC Annexin V/eFluor-780-viability double staining-based FACS analysis (reference value: 5.80%). The class given is functional.
Data set [5] is described as follows: Half life in Sprague-Dawley rat liver microsomes by LC-MS/MS analysis. Format: ADME, Microsome.
For data set [6], the system named is RPMI-8226. Briefly: Induction of apoptosis in human RPMI8226 cells assessed as viable cells at 1 uM after 72 hrs in presence GGOH by APC Annexin V/eFluor-780-viability double staining-based FACS analysis (reference value: 87.3%). Format: functional. To be noted: RPMI-8226, 72 h, read-out: Activity.
The subject of data set [7] is RPMI-8226. Description: Induction of apoptosis in human RPMI8226 cells assessed as viable cells at 1 uM after 72 hrs by APC Annexin V/eFluor-780-viability double staining-based FACS analysis (reference value: 87.3%). The class given is functional. The note with it: RPMI-8226, 72 h, read-out: Activity.
For data set [8], the system named is RPMI-8226. Description: Induction of apoptosis in human RPMI8226 cells assessed as late apoptotic cells at 1 uM after 72 hrs in presence GGOH by APC Annexin V/eFluor-780-viability double staining-based FACS analysis (reference value: 5.80%). The class given is functional.
In another data set the test system is MIA PaCa-2. Briefly: Antiproliferative activity against human MIAPaCa2 cells at 10 uM after 72 hrs by celltiter-glo luminescent assay. Format: functional, cell-based.
Data set [9] is described as follows: Toxicity in Vk*MYC transgenic mouse model assessed as weight loss at 3 mg/kg/day, ip administered over 14 days and measured at 4 hrs post last dose (reference value: 10 to 16%). Format: organism-based. The note with it: in vivo.
In the next data set the test system is Hydroxyapatite. Briefly: Binding affinity to bone mineral hydroxyapatite at 50 uM by 1H NMR assay.
In data set [10] the test system is RPMI-8226. Description: Induction of apoptosis in human RPMI8226 cells assessed as early apoptotic cells at 1 uM after 72 hrs in presence GGOH by APC Annexin V/eFluor-780-viability double staining-based FACS analysis (reference value: 3.31%). The class given is functional.
Data set [11] can be described thus: Hepatotoxicity in Vk*MYC transgenic mouse model assessed as effect of serum ALT levels at 3 mg/kg/day, ip administered over 14 days and measured at 4 hrs post last dose relative to control. To be noted: in vivo. Format: toxicity, organism-based.
A short description of data set [12]: Hepatotoxicity in Vk*MYC transgenic mouse model assessed as effect of serum AST levels at 3 mg/kg/day, ip administered over 14 days and measured at 4 hrs post last dose relative to control. The class given is toxicity, organism-based. The note with it: in vivo.
For data set [13], the system named is RPMI-8226. Briefly: Induction of apoptosis in human RPMI8226 cells assessed as necrotic cells at 1 uM after 72 hrs by APC Annexin V/eFluor-780-viability double staining-based FACS analysis (reference value: 3.60%). Format: functional.
Data set [14] relates to RPMI-8226. Briefly: Induction of apoptosis in human RPMI8226 cells assessed as early apoptotic cells at 1 uM after 72 hrs by APC Annexin V/eFluor-780-viability double staining-based FACS analysis (reference value: 3.31%). The class given is functional.
Data set [15] in a line: Half life in CD1 mouse liver microsomes by LC-MS/MS analysis. The class given is ADME, Microsome. (In general: Liver microsomes are vesicles of endoplasmic reticulum, rich in cytochrome P450 enzymes.)

`COc1ccc(NC(=O)c2cccc(-c3nc(NC(P(=O)(O)O)P(=O)(O)O)c4ccsc4n3)c2)cc1F`: the t1/2 came out at 154 min in [1], 187 min in data set [5] and 128 min in data set [15]. For the same compound, the result in the data set on NCI/ADR-RES, with MIA PaCa-2 and with Hydroxyapatite was Active. This compound also gave an IC50 in data set [2] of 1400 nM. Moreover, the Activity in the data set with RPMI-8226 [3] was 5.33%; with RPMI-8226 [4], 43%; with RPMI-8226 [8] it was 6.18%; in data set [9], 15 to 28%; in the data set on RPMI-8226 [10], 3.06%; in [11], “Toxic”. For the same compound, the Activity entry in data set [12] is “Toxic”; with RPMI-8226 [13], 40.2%; in the data set on RPMI-8226 [14], 4.42%. The viability at 1 µM in the data set on RPMI-8226 [6] amounted to 85.4%; in the data set with RPMI-8226 [7], 12.3%.

The values above are taken from ChEMBL document CHEMBL4382196, “Unraveling the Prenylation-Cancer Paradox in Multiple Myeloma with Novel Geranylgeranyl Pyrophosphate Synthase (GGPPS) Inhibitors” (J Med Chem, 2018).
